Experimental data taken from patent US20250074910A1, “MENIN INHIBITOR AND USE THEREOF” (HITGEN INC., priority 2021, published 2025).

Experiments:
[1] = test system: MV4-11; experiment: Cell proliferation inhibition (CellTiter-Glo), MV4-11; assay type: cell-based; details: Homo sapiens, MV4-11, 72 h, MV4-11 cells
Procedure, shortened: (§1)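 CellTiter-Glo luminescence read-out (10 min RT) after 72-168 h culture at 37° C, 5% CO2; cells plated 5,000-20,000/well; compound final 1 nM-10 μM; IC50 from curve fit.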

[2] = Stability in mouse liver microsomes; assay type: in vitro ADME; details: liver microsomes, pH 7.4, 0.5 mg/mL microsomal protein, 1.00 μM compound, NADPH, read-out: Half life T1/2, mouse liver microsomes
Procedure, shortened: (§2)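 Compound at 1.00 μM incubated at 37° C with 0.5 mg/mL liver microsomal protein and 2.00 mM NADPH in 100 mM phosphate buffer pH 7.4, sampled 0–60 min with acetonitrile quench. Parent remaining by LC-MS/MS; T½ from ln-remaining slope, CLint scaled by microsomal concentration and conversion factor.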

[3] = test system: OCI-AML3; experiment: Cell proliferation inhibition (CellTiter-Glo), OCI-AML3 (NPM1 mutation); assay type: cell-based; details: Homo sapiens, OCI-AML-3, 168 h, OCI-AML3 cells
Procedure, shortened: as §1

[4] = Pharmacokinetics test in mouse; assay type: in vivo, ICR mice; details: mice, p.o. 10 mg/kg; for AUC(0-t) / half-life / Cmax: male, ICR, mouse, plasma, po, 10 mg/kg; for Cmax: read-out: Cmax; for F, %: 1 mg/kg for intravenous injection
Excerpt: Test Example 4. In Vivo Pharmacokinetic Study
Test purpose: To determine the pharmacokinetic properties of some of the example compounds of the present disclosure in mice, rats and dogs after single intravenous injection (i.v.) and oral gavage (i.g.) administration by LC-MS/MS method.
Research methods: An appropriate amount of compound was weighed and prepared into a transparent clear solution of a certain concentration using 0.9% sodium chloride injection and 1.5 equivalents of 1M HCl aqueous solution based on the molar number of the compound. After SPF male ICR mice, SPF male SD rats, and male beagle dogs were fasted overnight, the test compound solution was given by intravenous injection and oral gavage at the corresponding dose. Anticoagulated whole blood of the test animals was collected at 5 min, 15 min, 30 min, 1 h, 2 h, 4 h, 8 h, and 24 h after administration, and plasma was separated. Plasma samples at each time point were detected by LC-MS/MS, and the plasma concentration of the compound was determined by the standard curve correction method. Phoenix WinNonlin 5.2 non-compartmental model was used to calculate the pharmacokinetic parameters of terminal elimination half-life (t½), blood peak concentration (Cmax), area under the concentration-time curve (AUC), clearance (CL), and bioavailability (F %), which was directly obtained from the serum concentration results. Blood drug concentration and pharmacokinetic parameters are expressed as mean±standard deviation (X±SD). The specific test protocols for each species are as follows.
Pharmacokinetics Test in Mouse
Test animals: SPF male ICR mice, weighing 25-30 g, 12 mice/compound, purchased from Chengdu Dossy Experimental Animal Co., Ltd.
Test design: On the day of the test, ICR mice were randomly divided into groups according to body weight, fasted but with free water for 12-14 h one day before administration, and fed 2 h after administration.
Preparation of test compound solution: The concentration of the test compound for oral gavage was 1 mg/mL. An appropriate amount of compound was weighed and prepared into a 1 mg/mL transparent clear solution using 0.9% sodium chloride injection and 1.5 equivalents of 1M HCl aqueous solution. The concentration of the test compound for intravenous injection was 0.2 mg/mL. The 1 mg/mL transparent clear solution was diluted to a concentration of 0.2 mg/mL using 0.9% sodium chloride injection. The volume of 1 M HCl solution added was calculated as: volume of 1 M HCl solution added […]=weighed amount of compound (mg)/molecular weight×1.5×1000. The amount added during preparation must not exceed the calculated value.
The test substance was administered as follows: intravenous injection: 1 mg/kg of dose, 5 mL/kg of volume, 6 mice; oral gavage: 10 mg/kg of dose, 10 mL/kg of volume, 6 mice.
Sample collection: Blood (40-50 μl) was collected in anticoagulant tubes sprayed with EDTA-K2 through the orbital venous plexus at 5 min, 15 min, 30 min, 1 h, 2 h, 4 h, 8 h, and 24 h after administration, and centrifuged at 10,000 rpm for 20 min within 1 h (the blood was saved on wet ice before and after centrifugation). The supernatant, which was plasma, was collected and frozen in a refrigerator at −20° C. or below for LC-MS/MS analysis of Full PK of male ICR mice (2 mice per group, 4 blood collection time points per mouse, crossover).

[5] = Stability in dog liver microsomes; assay type: in vitro ADME; details: dog, liver microsomes, pH 7.4, Dog; 0.5 mg/mL microsomal protein, 1.00 μM compound, NADPH; read-out: Half life T1/2, dog liver microsomes
Procedure, shortened: as §2

In the case of CCN(C(=O)c1cc(F)ccc1Oc1cncnc1N1CC2(CCN(C[C@H]3CC[C@]4(CC3)CC(COC)(COC)C(=O)N4)CC2)C1)C(C)C [Example 17], the GI50 [1] is reported as 13.8 nM, the half-life at 1 μM [2] is reported as over 2 h and the GI50 [3] is reported as 14.2 nM. The AUC(0-t) [4] was 3.22 µg·h/mL, the half-life [4] was 1.12 h and the Cmax [4] was 2.12 µg/mL. The “F, %” value [4] was 56% and the half-life at 1 μM [5] was over 2 h.
COCC1(COC)C[C@]2(CC[C@@H](CN3CCC4(CC3)CN(c3ncnnc3Oc3ccc(F)cc3C(=O)N(C(C)C)C(C)C)C4)CC2)NC1=O [Example 20] gave a GI50 [1] of 14.2 nM, a half-life at 1 μM [2] of 1.85 h and a GI50 [3] of 35.2 nM. For the same compound, the AUC(0-t) [4] was 2.18 µg·h/mL, the half-life [4] was 1.88 h and the Cmax [4] was 0.919 µg/mL. The “F, %” value [4] was 84% and the half-life at 1 μM [5] was over 2 h.
COC[C@@H]1C[C@]2(CC[C@@H](CN3CCC4(CC3)CN(c3ncnnc3Oc3ccc(F)cc3C(=O)N(C(C)C)C(C)C)C4)CC2)NC1=O [Example 38-2] gave a GI50 [1] of 13.1 nM, a half-life at 1 μM [2] of 1.08 h and a GI50 [3] of 21.8 nM. For the same compound, the AUC(0-t) [4] was 1.98 µg·h/mL, the half-life [4] was 0.83 h and the Cmax [4] was 0.824 µg/mL. For the same compound, the “F, %” value [4] was 55% and the half-life at 1 μM [5] was 1.64 h.
Work on CC(C)N(C(=O)c1cc(F)ccc1Oc1nncnc1N1CC2(CCN(CC3CC4CCC3CC43CCC(=O)N3)CC2)C1)C(C)C (single isomer, unassigned) [Example 15-1a] yielded a GI50 [1] of 56.6 nM, a half-life at 1 μM [2] of 1.52 h and a GI50 [3] of 82.5 nM. For the same compound, the AUC(0-t) [4] was 6.41 µg·h/mL, the half-life [4] was 1.17 h and the Cmax [4] was 3.03 µg/mL. The “F, %” value [4] was 60% and the half-life at 1 μM [5] was over 2 h.
Work on COC[C@H]1C[C@]2(CC[C@@H](CN3CCC4(CC3)CN(c3ncnnc3Oc3ccc(F)cc3C(=O)N(C(C)C)C(C)C)C4)CC2)NC1=O [Example 38-1] yielded a GI50 [1] of 53.8 nM, a half-life at 1 μM [2] of over 2 h and a GI50 [3] of 115 nM. For the same compound, the AUC(0-t) [4] was 5.06 µg·h/mL, the half-life [4] was 1.06 h and the Cmax [4] was 2.26 µg/mL. The “F, %” value [4] was 67% and the half-life at 1 μM [5] was over 2 h.
